In patent publication US8759520B2, “Compounds for treating cancer” (Boehringer Ingelheim International GmbH, priority 2008, dated 2014) one finds IC50 data, which are given here for 25 molecules.

The target in the assay is Bcl-2 (Homo sapiens, UniProt P10415). The experiment in a line: Homogeneous HTS assay for inhibitors of the Bcl-2 : Bak (72-87) BH3 domain interaction, fluorescence polarisation (2D-FIDA). In kind it is binding. The note with it: fluorescence polarisation, fluorescent labelled Bak BH3 domain derived peptide; read-out: IC50 [μM] Bcl-2. From the text:
FIG. 1 is a schematic drawing of the Bcl-2: Bak (72-87) interaction assay based on fluorescence polarisation.
The homogeneous HTS assay for inhibitors of the Bcl-2 is shown schematically in FIG. 1. BH3 domain interaction is based on fluorescence polarisation. The inherent rotational diffusion of the Bak BH3 domain derived fluorescent labelled peptide decreases upon binding to Bc1-2. This shift in rotational diffusion is quantitated using the two-dimensional fluorescence intensity distribution analysis (2D-FIDA; Kask et al. 2000, Biophys. J. 78: 1703-1713).
Two different BH3 domain derived peptide ligands were synthesised and subsequently fluorescently labelled: • a 16mer peptide covering amino acids 72-87 of the Bak protein; this peptide had been used by Wang and co-workers and Holinger and coworkers in their Bcl-2 protein binding studies; Wang and co-workers reported an equilibrium binding constant KD of ˜0.2 μM to Bcl-2 protein; • peptide sequence: GQVGRQLAIIGDDINR—N (Wang et al. 2002, Proc. Natl. Acad. Sci. U.S.A. 97: 7124-7129; Holinger et al. 1999, J. Biol. Chem. 274: 13298-13304).

Bcl-2, sequence (P10415 whole entry, species assumed, the tested form may be a part): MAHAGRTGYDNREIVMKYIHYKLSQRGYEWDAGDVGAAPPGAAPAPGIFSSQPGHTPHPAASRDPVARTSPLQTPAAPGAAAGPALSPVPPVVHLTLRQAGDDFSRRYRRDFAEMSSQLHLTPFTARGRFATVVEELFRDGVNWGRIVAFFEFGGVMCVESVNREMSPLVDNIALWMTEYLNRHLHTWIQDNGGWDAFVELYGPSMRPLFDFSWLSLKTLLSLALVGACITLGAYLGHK

One may read the IC50 as the concentration at which inhibition is half-maximal. With `N=c1n(Cc2ccccc2)c2ccccc2n1Cc1ccccn1` [Compound 1, 1-Benzyl-3-pyridin-2-ylmethyl-1,3-dihydro-benzoimidazol-2-ylideneamine], the IC50 lay in the range of 11 to 100 µM. As for `N=c1n(Cc2ccccc2)c2ccccc2n1Cc1cccnc1` [Compound 2, 1-Benzyl-3-pyridin-3-ylmethyl-1,3-dihydro-benzoimidazol-2-ylideneamine], the IC50 was more than 100 µM.

As to `N=c1n(Cc2ccccc2)c2ccccc2n1Cc1ccncc1` [Compound 3, 1-Benzyl-3-pyridin-4-ylmethyl-1,3-dihydro-benzoimidazol-2-ylideneamine], the 50% inhibitory concentration (IC50) was more than 100 µM. For `N=c1n(Cc2ccccc2)c2ccccc2n1CC1CCOCC1` [Compound 4, 1-Benzyl-3-(tetrahydro-pyran-4-ylmethyl)-1,3-dihydro-benzoimidazol-2-ylideneamine], the IC50 is more than 100 µM. The result for `N=c1n(CCCOc2ccc(F)cc2)c2ccccc2n1Cc1ccc(Br)cc1` [Compound 5, 1-(4-Bromo-benzyl)-3-[3-(4-fluoro-phenoxy)-propyl]-1,3-dihydro-benzoimidazol-2-ylideneamine] reads less than 10 µM. As to `N=c1n(CCCOc2ccc(F)cc2)c2ccccc2n1Cc1cccc(Br)c1` [Compound 6, 1-(3-Bromo-benzyl)-3-[3-(4-fluoro-phenoxy)-propyl]-1,3-dihydro-benzoimidazol-2-ylideneamine], the IC50 fell in the range of 11 to 100 µM. The value for `N=c1n(CCSc2ccccc2)c2ccccc2n1Cc1ccc(Br)cc1` [Compound 7, 1-(4-Bromo-benzyl)-3-(2-phenylsulfanyl-ethyl)-1,3-dihydro-benzoimidazol-2-ylideneamine] was 11 to 100 µM; that for `CCOC(=O)Cn1c(=N)n(CCCOc2ccc(F)cc2)c2ccccc21` [Compound 8, {3-[3-(4-Fluoro-phenoxy)-propyl]-2-imino-2,3-dihydro-benzoimidazol-1-yl}-acetic acid ethyl ester] was 11 to 100 µM; that for `N=c1n(CCCOc2ccc(Cl)cc2)c2ccccc2n1Cc1ccncc1` [Compound 9, 1-[3-(4-Chloro-phenoxy)-propyl]-3-pyridin-4-ylmethyl-1,3-dihydro-benzoimidazol-2-ylideneamine] was more than 100 µM. For `N=c1n(CCCOc2ccc(F)cc2)c2ccccc2n1Cc1cccc(Cl)c1` [Compound 10, 1-(3-Chloro-benzyl)-3-[3-(4-fluoro-phenoxy)-propyl]-1,3-dihydro-benzoimidazol-2-ylideneamine], the IC50 lay in the range of 11 to 100 µM.

On to `N=c1n(CCCOc2ccc(F)cc2)c2ccccc2n1Cc1ccc(Cl)c(Cl)c1` [Compound 11, 1-(3,4-Dichloro-benzyl)-3-[3-(4-fluoro-phenoxy)-propyl]-1,3-dihydro-benzoimidazol-2-ylideneamine], for which the IC50 was 11 to 100 µM. With `N=c1n(CCCOc2ccc(Cl)cc2)c2ccccc2n1Cc1ccc(Br)cc1` [Compound 12, 1-(4-Bromo-benzyl)-3-[3-(4-chloro-phenoxy)-propyl]-1,3-dihydro-benzoimidazol-2-ylideneamine], the concentration for half-maximal inhibition (IC50) lay within 11 to 100 µM. In the case of `N=c1n(Cc2ccc(Br)cc2)c2ccccc2n1CC1COc2ccccc2O1` (stereo not shown) [Compound 13, 1-(4-Bromo-benzyl)-3-(2,3-dihydro-benzo[1,4]dioxin-2-ylmethyl)-1,3-dihydro-benzoimidazol-2-ylideneamine], the IC50 lay within 11 to 100 µM. Consider `N=c1n(CCCOc2ccc([N+](=O)[O-])cc2)c2ccccc2n1Cc1ccc(Br)cc1` [Compound 14, 1-(4-Bromo-benzyl)-3-[3-(4-nitro-phenoxy)-propyl]-1,3-dihydro-benzoimidazol-2-ylideneamine], for which the IC50 lay in the range of 11 to 100 µM. With `COC(=O)c1cccc(Cn2c(=N)n(CCCOc3ccc(F)cc3)c3ccccc32)c1` [Compound 15, 3-{3-[3-(4-Fluoro-phenoxy)-propyl]-2-imino-2,3-dihydro-benzoimidazol-1-ylmethyl}-benzoic acid methyl ester], the half-maximal inhibitory concentration (IC50) is less than 10 µM. The value for `N=c1n(CCCOc2ccc(F)cc2)c2ccccc2n1Cc1ccc(-c2ccc(F)cc2)cc1` [Compound 16, 1-(4′-Fluoro-biphenyl-4-ylmethyl)-3-[3-(4-fluoro-phenoxy)-propyl]-1,3-dihydro-benzoimidazol-2-ylideneamine] was 11 to 100 µM; that for `Cn1c(=N)n(Cc2ccc(N3CCN(Cc4ccccc4-c4ccccc4)CC3)cc2)c2ccccc21` [Compound 17, 1-[4-(4-Biphenyl-2-ylmethyl-piperazin-1-yl)-benzyl]-3-methyl-1,3-dihydro-benzoimidazol-2-ylideneamine] was 11 to 100 µM; that for `N=c1n(Cc2ccccc2)c2ccccc2n1Cc1ccc(N2CCN(Cc3ccccc3-c3ccccc3)CC2)cc1` [Compound 18, 1-Benzyl-3-[4-(4-biphenyl-2-ylmethyl-piperazin-1-yl)-benzyl]-1,3-dihydro-benzoimidazol-2-ylideneamine] was less than 10 µM. The value for `N=c1n(CCCOc2ccc(F)cc2)c2ccccc2n1Cc1ccc(N2CCN(Cc3ccc(Cl)cc3)CC2)cc1` [Compound 19, 1-{4-[4-(4-Chloro-benzyl)-piperazin-1-yl]-benzyl}-3-[3-(4-fluoro-phenoxy)-propyl]-1,3-dihydro-benzoimidazol-2-ylideneamine] was 11 to 100 µM. The result for `N=c1n(CCCOc2ccc(F)cc2)c2ccccc2n1Cc1ccc(N2CCN(Cc3ccccc3Cl)CC2)cc1` [Compound 20, 1-{4-[4-(2-Chloro-benzyl)-piperazin-1-yl]-benzyl}-3-[3-(4-fluoro-phenoxy)-propyl]-1,3-dihydro-benzoimidazol-2-ylideneamine] reads less than 10 µM; that for `N=c1n(CCCOc2ccc(F)cc2)c2ccccc2n1Cc1ccc(N2CCN(Cc3cccc(Cl)c3)CC2)cc1` [Compound 21, 1-{4-[4-(3-Chloro-benzyl)-piperazin-1-yl]-benzyl}-3-[3-(4-fluoro-phenoxy)-propyl]-1,3-dihydro-benzoimidazol-2-ylideneamine], less than 10 µM.

`N=c1n(CCCOc2ccc(F)cc2)c2ccccc2n1Cc1ccc(N2CCN(Cc3ccccc3)CC2)cc1` [Compound 22, 1-[4-(4-Benzyl-piperazin-1-yl)-benzyl]-3-[3-(4-fluoro-phenoxy)-propyl]-1,3-dihydro-benzoimidazol-2-ylideneamine]: the half-inhibitory concentration (IC50) was less than 10 µM.

Take `N=c1n(CCCOc2ccc(F)cc2)c2ccccc2n1Cc1ccc(N2CCN(Cc3ccccc3-c3ccc(Cl)cc3)CC2)cc1` [Compound 24, 1-{4-[4-(4′-Chloro-biphenyl-2-ylmethyl)-piperazin-1-yl]-benzyl}-3-[3-(4-fluoro-phenoxy)-propyl]-1,3-dihydro-benzoimidazol-2-ylideneamine]: the IC50 was less than 10 µM. As for `N=c1n(CCCOc2ccc(F)cc2)c2ccccc2n1Cc1ccc(N2CCN(Cc3ccccc3-c3ccccc3)CC2)cc1` [Compound 25, 1-[4-(4-Biphenyl-2-ylmethyl-piperazin-1-yl)-benzyl]-3-[3-(4-fluoro-phenoxy)-propyl]-1,3-dihydro-benzoimidazol-2-ylideneamine], the IC50 was less than 10 µM. Take `N=c1n(CCCOc2ccc(F)cc2)c2ccccc2n1Cc1cccc(N2CCN(Cc3ccccc3-c3ccccc3)CC2)c1` [Compound 26, 1-[3-(4-Biphenyl-2-ylmethyl-piperazin-1-yl)-benzyl]-3-[3-(4-fluoro-phenoxy)-propyl]-1,3-dihydro-benzoimidazol-2-ylideneamine]: the 50% inhibitory concentration (IC50) was less than 10 µM.
